{
  "source": "patent US6461848B1",
  "about": "“Human heparanase polypeptide and cDNA” (Novartis AG, priority 1998, dated 2002)",
  "origin": "cited, not measured here",
  "key": {"[1]": {"biological_target": "T1, heparanase (Homo sapiens, UniProt Q9Y251)", "T1 sequence (Q9Y251 36-543)": "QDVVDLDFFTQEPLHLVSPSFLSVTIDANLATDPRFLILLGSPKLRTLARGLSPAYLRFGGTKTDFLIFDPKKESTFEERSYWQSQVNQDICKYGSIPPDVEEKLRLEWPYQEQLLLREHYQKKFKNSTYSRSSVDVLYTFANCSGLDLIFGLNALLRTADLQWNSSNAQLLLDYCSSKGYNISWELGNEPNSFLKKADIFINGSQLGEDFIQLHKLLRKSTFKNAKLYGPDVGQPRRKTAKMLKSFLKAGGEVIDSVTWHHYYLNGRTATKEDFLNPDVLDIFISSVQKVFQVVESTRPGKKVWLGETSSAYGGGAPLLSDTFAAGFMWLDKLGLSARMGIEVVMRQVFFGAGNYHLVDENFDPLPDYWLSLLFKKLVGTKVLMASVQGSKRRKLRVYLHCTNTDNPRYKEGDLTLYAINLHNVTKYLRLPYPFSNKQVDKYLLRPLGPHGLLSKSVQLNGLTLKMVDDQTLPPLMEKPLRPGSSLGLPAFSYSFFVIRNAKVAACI"}, "[2]": {"test_system": "human pancreatic (Ca-Pan-2) adenocarcinoma", "conditions": "subcutaneous Ca-Pan-2 adenocarcinoma, nude mice"}, "[3]": {"test_system": "B16-F10 melanoma", "conditions": "C57BL/6N mice, B16-F10 experimental lung metastasis"}, "[4]": {"biological_target": "T2, heparanase (Mus musculus, UniProt Q6YGZ1)", "T2 sequence (Q6YGZ1 28-535)": "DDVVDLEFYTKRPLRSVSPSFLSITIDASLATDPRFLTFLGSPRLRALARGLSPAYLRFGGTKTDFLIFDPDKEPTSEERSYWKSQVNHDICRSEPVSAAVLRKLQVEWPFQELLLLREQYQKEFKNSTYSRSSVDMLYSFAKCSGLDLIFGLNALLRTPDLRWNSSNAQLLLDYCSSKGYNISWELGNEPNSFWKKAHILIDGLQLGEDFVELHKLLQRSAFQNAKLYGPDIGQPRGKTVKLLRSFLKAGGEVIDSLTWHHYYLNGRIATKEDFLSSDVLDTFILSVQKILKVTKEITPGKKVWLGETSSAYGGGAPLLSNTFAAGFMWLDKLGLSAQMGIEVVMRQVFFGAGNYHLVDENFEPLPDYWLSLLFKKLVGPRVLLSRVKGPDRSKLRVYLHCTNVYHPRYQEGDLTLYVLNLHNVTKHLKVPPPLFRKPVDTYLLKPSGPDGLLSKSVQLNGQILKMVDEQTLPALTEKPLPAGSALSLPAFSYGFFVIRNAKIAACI"}, "[5]": {"biological_target": "T3, murin melanoma heparanase (Mus musculus, UniProt Q6YGZ1)", "T3 construct": "host or cells: murine melanoma", "T3 sequence (Q6YGZ1 28-535)": "T2 sequence (Q6YGZ1 28-535)"}, "[6]": {"test_system": "murin melanoma"}},
  "data": [
    {"compound": "2,3-O-desulfated heparin", "values": [
      {"measurement": "inhibition of heparanase activity", "setting": "[1]", "result": "inhibit"},
      {"measurement": "inhibition of tumor growth", "setting": "[2]", "result": "inhibit"},
      {"measurement": "survival times", "setting": "[3]", "result": "prolonged"}
    ]},
    {"compound": "heparin", "values": [
      {"measurement": "inhibition of heparanase", "setting": "[4]", "result": "inhibited"}
    ]},
    {"compound": "Cc1ccc(C(=O)Nc2ccc(S(=O)(=O)O)c3cc(S(=O)(=O)O)cc(S(=O)(=O)O)c23)cc1NC(=O)c1cccc(NC(=O)Nc2cccc(C(=O)Nc3cc(C(=O)Nc4ccc(S(=O)(=O)O)c5cc(S(=O)(=O)O)cc(S(=O)(=O)O)c45)ccc3C)c2)c1", "note": "[Suramin]", "values": [
      {"measurement": "inhibition of murin melanoma heparanase", "setting": "[5]", "result": "strongly inhibit"},
      {"measurement": "inhibition of melanoma invasion", "setting": "[6]", "result": "strongly inhibit"}
    ]},
    {"compound": "O=C(O)[C@@H](O)[C@H]1OC(=O)[C@H](O)[C@H]1O", "note": "[1,4-saccharolactone]", "values": [
      {"measurement": "inhibition of heparanase", "setting": "[4]", "result": "not"}
    ]}
  ]
}
